Laboratory results as given in PMC4818591 (ChemMedChem, 2015).

What was measured:
[1] = system: BxPC3 subcutaneous xenograft; conditions: BxPC3 subcutaneous xenograft mouse model; cited from earlier work
HDAC1 = HDAC1 (Homo sapiens, UniProt Q13547); assay: HDAC1 isozyme inhibition; format: biochemical; conditions: for SI HDAC1/6: selectivity index
HDAC2 = HDAC2 (Homo sapiens, UniProt Q92769); assay: HDAC2 isozyme inhibition; format: biochemical; conditions: for SI HDAC2/6: selectivity index
HDAC3 = HDAC3 (Homo sapiens, UniProt O15379); assay: HDAC3 isozyme inhibition; format: biochemical; conditions: for SI HDAC3/6: selectivity index
HDAC6 = biological target: T1, HDAC6 (Homo sapiens, UniProt Q9UBN7); assay: HDAC6 isozyme inhibition; format: biochemical; conditions: read-out: HDAC Isoform, IC50, Class II, 6; duplicate, 10-dose IC50 mode, 3-fold serial dilution starting at 30 μM; average ± standard deviation
T1 sequence (Q9UBN7 1-1215): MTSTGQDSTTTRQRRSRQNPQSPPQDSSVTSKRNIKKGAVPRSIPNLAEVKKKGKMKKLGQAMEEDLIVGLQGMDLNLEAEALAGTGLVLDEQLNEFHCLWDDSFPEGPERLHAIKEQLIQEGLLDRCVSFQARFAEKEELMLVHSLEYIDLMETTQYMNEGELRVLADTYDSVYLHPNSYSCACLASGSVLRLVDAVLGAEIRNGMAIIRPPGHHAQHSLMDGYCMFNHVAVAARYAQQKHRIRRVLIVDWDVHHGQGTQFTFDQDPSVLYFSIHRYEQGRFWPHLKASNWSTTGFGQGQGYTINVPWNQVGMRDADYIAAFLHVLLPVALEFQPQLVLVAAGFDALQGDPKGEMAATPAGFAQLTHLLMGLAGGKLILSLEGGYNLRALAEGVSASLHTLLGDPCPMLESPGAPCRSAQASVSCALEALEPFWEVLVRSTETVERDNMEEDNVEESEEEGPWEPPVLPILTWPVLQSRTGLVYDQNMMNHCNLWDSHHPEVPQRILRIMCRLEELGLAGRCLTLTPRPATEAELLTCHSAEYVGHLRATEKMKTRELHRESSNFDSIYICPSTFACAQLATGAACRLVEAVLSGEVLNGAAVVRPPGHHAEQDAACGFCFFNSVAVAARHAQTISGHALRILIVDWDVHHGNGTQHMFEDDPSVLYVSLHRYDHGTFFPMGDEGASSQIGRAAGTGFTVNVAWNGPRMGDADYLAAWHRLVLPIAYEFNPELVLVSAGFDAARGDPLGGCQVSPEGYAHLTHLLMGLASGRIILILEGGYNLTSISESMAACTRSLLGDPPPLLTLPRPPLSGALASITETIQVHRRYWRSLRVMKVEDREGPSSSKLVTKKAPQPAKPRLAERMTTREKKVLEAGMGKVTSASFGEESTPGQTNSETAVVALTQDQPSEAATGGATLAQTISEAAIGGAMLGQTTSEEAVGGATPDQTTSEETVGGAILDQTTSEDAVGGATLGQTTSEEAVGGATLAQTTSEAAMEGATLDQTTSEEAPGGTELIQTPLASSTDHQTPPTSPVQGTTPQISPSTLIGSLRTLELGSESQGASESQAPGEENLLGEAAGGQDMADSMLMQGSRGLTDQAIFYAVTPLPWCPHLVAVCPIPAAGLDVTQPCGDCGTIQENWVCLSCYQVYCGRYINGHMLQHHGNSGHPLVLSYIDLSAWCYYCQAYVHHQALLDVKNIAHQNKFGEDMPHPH

HDAC10 = biological target: T2, HDAC10 (Homo sapiens, UniProt Q969S8); assay: HDAC10 isozyme inhibition; format: biochemical; conditions: for SI HDAC10/6: selectivity index
T2 sequence (Q969S8 1-669): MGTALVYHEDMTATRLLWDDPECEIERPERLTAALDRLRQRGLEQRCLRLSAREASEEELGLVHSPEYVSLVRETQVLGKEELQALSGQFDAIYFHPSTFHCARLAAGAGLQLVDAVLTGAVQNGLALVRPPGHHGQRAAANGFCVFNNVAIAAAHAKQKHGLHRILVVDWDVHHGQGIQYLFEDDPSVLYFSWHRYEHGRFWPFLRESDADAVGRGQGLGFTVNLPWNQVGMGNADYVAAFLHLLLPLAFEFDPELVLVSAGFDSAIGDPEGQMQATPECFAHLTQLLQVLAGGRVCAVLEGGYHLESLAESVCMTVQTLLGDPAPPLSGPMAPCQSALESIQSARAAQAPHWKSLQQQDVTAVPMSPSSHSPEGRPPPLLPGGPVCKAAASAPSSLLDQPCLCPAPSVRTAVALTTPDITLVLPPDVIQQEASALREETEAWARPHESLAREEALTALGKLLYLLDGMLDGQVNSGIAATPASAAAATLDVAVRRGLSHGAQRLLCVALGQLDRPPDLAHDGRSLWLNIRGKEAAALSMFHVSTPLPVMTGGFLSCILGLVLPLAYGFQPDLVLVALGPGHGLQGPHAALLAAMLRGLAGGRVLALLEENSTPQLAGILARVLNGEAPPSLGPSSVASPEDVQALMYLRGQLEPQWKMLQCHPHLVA

[2] = system: L3.6pl pancreatic cancer cells; assay: Apoptosis by Hoechst staining and PARP cleavage, L3.6pl; format: cell-based; conditions: 10 μM, 24 h
[3] = system: BxPC3 pancreatic cancer cells; assay: Apoptosis induction, BxPC3; format: cell-based; conditions: BxPC3, data not shown
[4] = system: L3.6pl pancreatic cancer cells; assay: Growth inhibition, MTS cell proliferation assay, L3.6pl; format: cell-based; conditions: Homo sapiens, 72 h, read-out: L3.6pl GI50

Sequence of HDAC2 (Q92769 whole entry): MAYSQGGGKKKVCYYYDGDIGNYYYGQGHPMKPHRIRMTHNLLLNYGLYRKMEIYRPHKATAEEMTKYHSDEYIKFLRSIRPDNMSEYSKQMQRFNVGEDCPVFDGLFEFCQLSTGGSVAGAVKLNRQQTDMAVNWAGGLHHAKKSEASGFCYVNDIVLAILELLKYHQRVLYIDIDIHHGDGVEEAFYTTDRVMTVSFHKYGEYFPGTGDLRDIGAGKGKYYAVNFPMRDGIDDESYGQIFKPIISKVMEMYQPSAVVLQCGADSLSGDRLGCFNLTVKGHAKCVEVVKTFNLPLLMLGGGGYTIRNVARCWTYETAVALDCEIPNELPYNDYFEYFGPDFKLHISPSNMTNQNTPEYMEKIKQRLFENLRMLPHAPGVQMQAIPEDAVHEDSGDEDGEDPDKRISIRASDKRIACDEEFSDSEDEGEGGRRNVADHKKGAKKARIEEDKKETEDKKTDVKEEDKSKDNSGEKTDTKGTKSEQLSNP
Sequence of HDAC3 (O15379 whole entry, canonical isoform): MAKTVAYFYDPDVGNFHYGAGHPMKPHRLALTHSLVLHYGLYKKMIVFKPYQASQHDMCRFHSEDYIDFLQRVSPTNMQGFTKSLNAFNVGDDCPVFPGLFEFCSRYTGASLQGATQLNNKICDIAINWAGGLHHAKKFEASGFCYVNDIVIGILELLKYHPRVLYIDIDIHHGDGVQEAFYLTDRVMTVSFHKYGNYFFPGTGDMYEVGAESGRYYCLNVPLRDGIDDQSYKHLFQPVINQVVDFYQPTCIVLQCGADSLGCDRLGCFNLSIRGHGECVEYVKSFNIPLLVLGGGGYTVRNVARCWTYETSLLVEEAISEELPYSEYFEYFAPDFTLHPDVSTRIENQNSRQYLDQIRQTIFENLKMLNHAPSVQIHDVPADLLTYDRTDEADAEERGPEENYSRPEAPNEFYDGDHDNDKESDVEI
Sequence of HDAC3 (Q9Y618 395-489 partner limits assumed): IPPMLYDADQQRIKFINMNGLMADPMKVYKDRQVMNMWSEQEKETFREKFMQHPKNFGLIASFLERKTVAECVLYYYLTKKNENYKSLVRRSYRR
Sequence of HDAC1 (Q13547 whole entry): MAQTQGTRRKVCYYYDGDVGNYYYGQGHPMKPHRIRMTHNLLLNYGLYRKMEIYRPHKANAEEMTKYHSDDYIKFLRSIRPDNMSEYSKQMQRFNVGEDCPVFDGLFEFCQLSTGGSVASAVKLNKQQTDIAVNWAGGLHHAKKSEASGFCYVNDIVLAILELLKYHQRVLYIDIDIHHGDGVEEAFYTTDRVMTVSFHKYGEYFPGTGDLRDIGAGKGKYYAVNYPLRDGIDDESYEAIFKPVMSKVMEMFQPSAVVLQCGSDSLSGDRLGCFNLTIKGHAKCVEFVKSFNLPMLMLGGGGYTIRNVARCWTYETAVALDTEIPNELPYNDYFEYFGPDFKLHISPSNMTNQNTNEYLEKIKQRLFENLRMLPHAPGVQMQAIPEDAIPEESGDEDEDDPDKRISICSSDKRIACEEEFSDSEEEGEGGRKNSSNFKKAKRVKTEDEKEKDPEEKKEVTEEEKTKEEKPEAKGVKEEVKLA

IC50 (HDAC1; read-out: HDAC Isoform, IC50, Class I, 1, singlet, 10-dose IC50 mode, 3-fold serial dilution starting at 30 μM, >50000 = no inhibition at 50 μM) [nM]	SI HDAC1/6 (HDAC1)	IC50 (HDAC2; read-out: HDAC Isoform, IC50, Class I, 2, singlet, 10-dose IC50 mode, 3-fold serial dilution starting at 30 μM, >50000 = no inhibition at 50 μM) [nM]	SI HDAC2/6 (HDAC2)	IC50 (HDAC3; read-out: HDAC Isoform, IC50, Class I, 3, singlet, 10-dose IC50 mode, 3-fold serial dilution starting at 30 μM, >50000 = no inhibition at 50 μM) [nM]	SI HDAC3/6 (HDAC3)	IC50 (HDAC6) [nM]	IC50 (HDAC10; read-out: HDAC Isoform, IC50, Class II, 10, singlet, 10-dose IC50 mode, 3-fold serial dilution starting at 30 μM, >50000 = no inhibition at 50 μM) [nM]	SI HDAC10/6 (HDAC10)	GI50 [4] [nM]	SMILES	apoptosis and tumor growth [1]	induction of apoptosis (Hoechst staining, PARP cleavage) [2]	induction of apoptosis [3]
										Cc1[nH]c2ccccc2c1CCNCc1ccc(/C=C/C(=O)NO)cc1 [panobinostat]	promote apoptosis and reduce tumor growth		
307	10	1140	37	320	10	31 ± 3.4	407	13		O=C(CCc1cc(C(=O)NO)no1)Nc1nc(-c2ccccc2)cs1 [Compound 2, 5-[2-[N-(4-Phenylthiazol-2-yl)carbamoyl]ethyl]isoxazole-3-carbohydroxyamic Acid]		effectively induced apoptosis	none of compounds 1, 2, or 4 induced apoptosis
	4.1		17		7.2			6.6		CCOC(=O)Nc1ccc(-c2csc(NC(=O)CCCc3cc(C(=O)NO)no3)n2)cc1 [Compound 4, N-[4-[2-[4-[3-(N-Hydroxycarbamoyl)isoxazol-5-yl]butyrylamino]thiazol-4-yl]phenyl]carbamic Acid Ethyl Ester]		effectively induced apoptosis	none of compounds 1, 2, or 4 induced apoptosis
	4.3		15		11			10	1300	O=C(CCCc1cc(C(=O)NO)no1)Nc1nc(-c2ccccc2)cs1 [Compound 1, 5-[3-[N-(4-Phenylthiazol-2-yl)carbamoyl]propyl]isoxazole-3-carbohydroxamic Acid]		effectively induced apoptosis	none of compounds 1, 2, or 4 induced apoptosis
